Source: US20140370520A1, “METHODS AND COMPOUNDS FOR DETECTING CANCER” (University College Cardiff Constultants Limited, priority 2010, published 2014)
Several values for one entry are separate records, joined by “and”; a condition that tells them apart may be missing. Identical values can stand only once. Each block holds one compound with its values, some of them ahead of it.

How the values were obtained:
hNQO1 [1] = molecular target: T1, hNQO1 (Homo sapiens, UniProt P15559); test: Activity of 4-MU and Lactone with hNQO1; format: biochemical; settings: 0.1 mM, NADH 0.5 mM, hNQO1, phosphate buffer pH 7, 37° C. (FIG. 6)
T1 sequence (P15559 whole entry): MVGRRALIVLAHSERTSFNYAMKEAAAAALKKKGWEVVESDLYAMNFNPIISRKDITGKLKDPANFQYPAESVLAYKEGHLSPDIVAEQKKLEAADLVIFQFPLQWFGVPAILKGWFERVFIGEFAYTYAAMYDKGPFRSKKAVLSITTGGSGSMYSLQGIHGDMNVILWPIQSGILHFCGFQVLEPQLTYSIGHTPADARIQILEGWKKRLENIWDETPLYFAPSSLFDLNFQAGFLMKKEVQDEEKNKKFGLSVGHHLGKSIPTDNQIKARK
Experimental: This experiment was performed to ensure the products of activation were not further metabolised by hNQO1. HPLC was carried out on samples containing 4-MU and Lactone (0.1 mM), NADH (0.5 mM) and hNQO1 (0.2 μg) in phosphate buffer (10 mM, pH 7) using a 1-99% acetonitrile gradient and a 2 μl injection volume. Temperature was maintained at 37° C.

hNQO2 in PC3 cells = molecular target: T2, hNQO2 in PC3 cells (Homo sapiens, UniProt P16083); test: Discrimination between NQO1 and NQO2 activity in PC3 cells with co-substrate EP-0152R; format: cell-based; settings: 5×10^5 PC-3 cells, 10 uM MTL8-252, 100 uM EP-0152R, 37° C., 5 min (FIG. 14)
T2 construct: Prostate carcinoma cells (as exemplified by PC3 cells) express both NQO1 and NQO2 activity; endogenous in cells; host or cells: PC3 (PC-3) human prostate cancer cell line
T2 sequence (P16083 1-231): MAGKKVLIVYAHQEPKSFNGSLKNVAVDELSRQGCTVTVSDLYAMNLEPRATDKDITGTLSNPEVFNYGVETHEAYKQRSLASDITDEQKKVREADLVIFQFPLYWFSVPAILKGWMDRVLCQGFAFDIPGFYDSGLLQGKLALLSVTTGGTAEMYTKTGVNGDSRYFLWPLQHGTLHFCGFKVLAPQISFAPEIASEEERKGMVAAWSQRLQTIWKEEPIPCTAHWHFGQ
Experimental: Prostate carcinoma cells (as exemplified by PC3 cells) express both NQO1 and NQO2 activity. However, the latter is only activated by the presence of a co-substrate not naturally present in the cells (EP-0152R, 1-carbamoylmethyl-3-carbamoyl-1,4-dihydronicotinamide).
To 440 ul of PBS containing 5×10^5 PC-3 cells pre-incubated at 37° C. for 5 min was added 10 uM MTL8-252 fluorogenic substrate in DMSO (final, 10 ul) and volume adjusted to 500 ul with PBS. After incubating for a further 5 min the mixture was syringe filtered as above and 2 ul of supernatant analysed by uplc as described earlier. The reaction on the same number of cells was repeated with the inclusion of 100 uM EP-0152R (50 ul) as co-substrate during incubation. The reaction mixture was filtered and analysed as above. […] In the former instance, where NQO1 and NQO2 are expressed, the supplemented assay can be used to provide a stronger assay signal and in the latter instance, where only NQO2 is expressed, the supplemented assay can be used to detect hNQO2 expressing cancers only.

[2] = Control experiment: substrate alone without cells, 4-MU release; format: physicochemical
hNQO1 [3] = molecular target: T1, hNQO1; test: Evaluation of MTL8-252 activity with human NQO1 (HPLC/UPLC, UV and fluorescence detection); format: biochemical
Experimental: Initial HPLC was carried out on samples containing MTL8-252 (0.1 mM), NADH (0.5 mM) and 0.5 μg/ml hNQO1 in phosphate buffer (10 mM, pH 7) using a 1-99% acetonitrile gradient and a 1 μl injection volume. Temperature was maintained at 37° C.
Reduction of the parent compound was rapid as most of it had disappeared by the second injection. […] The rate of reduction in MTL8-252 concentration was calculated at 5.9 μM/min and when the concentration of the enzyme was halved the rate reduced to 1.5 μM/min
By altering the settings of the FL Plus detector (Low PMT voltage, λex 410 nm, λem 550 nm) and calibrating for 4-MU measurements by establishing a calibration graph it can be seen that there was a linear response to 4-MU up to at least 200 μM. The maximum concentration used in incubation experiments is 100 μM, final.
Following calibration of the instrument, a repeat experiment of the activation of MTL8-252 by hNQO1 was carried out resulting in calculated rates of loss of MTL8-252 and formation of 4-MU (see FIG. 4). Rate loss of MTL8-252 was 8.41 uM/min and that corresponding to 4-MU formation determined by fluorescence was 13.51 uM/min.

[4] = Solubility of MTL8-252 in NMP and DMSO; format: physicochemical
Experimental: NMP Solubility: A solution of the product of Example 3D (MTL8-252) was prepared in NMP and further diluted to 0.1M in NMP. The purity of the compound was assessed via uplc using a 1-99% Acetonitrile gradient. Injection volumes of 0.5 μl, 1 μl, 2 μl, 3 μl and 5 μl were used. Purity was determined to be almost 100% based on uv data at 265 nm. The FL Plus settings were (high PMT voltage, λex 410 nm and λem 550 nm, off peak). Only a single peak with retention time of approx 4.3 min was detected. MTL8-252 was equally very soluble in DMSO.
A similar result was obtained for the diluted DMSO stock. Subsequent experiments utilised 0.1M diluted stock in 10 mM phosphate buffer, pH 7.0 and injected directly onto the uplc column

hNQO1 [5] = molecular target: T1, hNQO1; test: Evaluation of MTL8-252 activity with human NQO1 (HPLC/UPLC, UV and fluorescence detection); format: biochemical; remark: listed apart in the source
[6] = molecular target: T3, hDT7 NQO1-expressing cell line (Homo sapiens, UniProt P15559); test: MTL8-252 incubation with cultured cells, uplc separation followed by FL-Plus detection; format: cell-based
T3 construct: expressed in transfected cells; host or cells: HDT7 (engineered NQO1-producing cell line; F179 is the null control)
T3 sequence (P15559 whole entry): as the sequence (P15559 whole entry) above
Experimental: (§1) Cells in exponential growth phase were harvested and resuspended in cold PBS at 5×10^6 cells/ml. 100 ul of cell suspension (5×10^5 cells) were added to 1 ml PBS containing 10 uM MTL8-252 at 37° C. and incubated for the following time periods: 0, 5, 30 and 60 min. The reaction was stopped by spinning down cells at 13,000 rpm for 30 seconds and the cell free extract injected (2 ul) directly unto the uplc.

[7] = tested on: null expressing cell line F179; test: as above; format: cell-based; settings: MTL8-252 10 μM in PBS, 5×10^5 cells/mL
Experimental: as §1

[8] = Stability of MTL8-252 in PBS and cell culture media with or without FBS; format: physicochemical
Source text: Possible source is from FBS added in media.

[9] = Stability of MTL8-252 in NMP and sodium phosphate buffer; format: physicochemical
Experimental: Stability of 0.1M MTL8-252 in NMP was assessed over a 2-hour period at 37° C. The compound appeared stable as evidenced by the fact that the uv absorbance peak area remained substantially unchanged. […] A similar experiment was carried out with DMSO stock diluted in 10 mM sodium phosphate buffer.

[10] = molecular target: T4, Human NQO1 expressing cells (HDT7) (Homo sapiens, UniProt P15559); test: MTL8-252 incubation with cultured cells, luminescence spectrophotometric determination of 4-MU; format: cell-based
T4 construct: expressed in transfected cells; host or cells: HDT7 (engineered NQO1-producing cell line; F179 is the null control)
T4 sequence (P15559 whole entry): as the sequence (P15559 whole entry) above
Experimental: (§2) Human NQO1 expressing cells (HDT7) and null expressing cells (F179) were cultured in Eagle's MEM medium enriched with non-essential amino acids and 10% FBS. Cells were harvested in exponential growing phase and suspended in cold PBS @ 5×10^6 cells/ml. 100 ul of cell suspension (5×10^5 cells) were added to 3 ml PBS containing 10 uM MTL8-252 at 37° C. in a fluorimeter cuvette and the rate of increase in fluorescence intensity (attributed to 4-MU release), measured over 3 minutes. Control experiment contained substrate alone in PBS.
(§3) The Luminescence Spectrophotometer settings were as follows: λex=360 nm; λem=452 @ 37° C.

[11] = tested on: null expressing cells (F179); test: as above; format: cell-based; settings: F179 2.5×10^5 cells/mL, luminescence spectrophotometer
Experimental: as §2, §3

[12] = repeat experiment after calibration (FIG. 4)
[13] = replots of UV data at 210 nm (FIG. 5)

- substrate of / stability in the presence of hNQO1 (hNQO1 [1]): not substrates of hNQO1
- substrate of / stability in the presence of hNQO1 (hNQO1 [1]; listed as 4 MU): stable in the presence of hNQO1
Structure (SMILES): Cc1cc(=O)oc2cc(O)ccc12 [Compound 4-MU, 4-methylumbelliferone, reference compound]

- substrate of / stability in the presence of hNQO1 (hNQO1 [1]): not substrates of hNQO1
- substrate of / stability in the presence of hNQO1 (hNQO1 [1]; listed as lactone): stable in the presence of hNQO1
Structure (SMILES): Cc1c(C)c2c(c(C)c1O)C(C)(C)CC(=O)O2 [Lactone, 6-Hydroxy-4,4,5,7,8-pentamethyl-1-benzopyran-2-one]

- increase in the formation of 4-MU by addition of hNQO2 selective co-substrate (hNQO2 in PC3 cells): 1.2 fold
- rate of disappearance of Compound (FIG. 4) (hNQO1 [3]; MTL8-252 100 μM, hNQO1 0.2 μg/mL, NADH 500 μM, UPLC): 13.51 µM/min
- reduction in the area of the peak without enzyme (hNQO1 [3]; MTL8-252 alone or with NADH alone (FIG. 3)): No significant reduction
- rate of appearance of 4 MU (FIG. 5) (hNQO1 [3]; UV at 210 nm, hNQO1 and NADH): 11.5 µM/min
- rate of appearance of the lactone (FIG. 5) (hNQO1 [3]; UV at 210 nm, hNQO1 and NADH): 9.84 µM/min
- rate of disappearance of MTL8-252 (FIG. 5) (hNQO1 [3]; UV at 210 nm, hNQO1 and NADH): 8.41 µM/min
- rate of appearance of 4 MU (FIG. 4) (hNQO1 [3]; detected by fluorescence, MTL8-252 100 μM, hNQO1 0.2 μg/mL, NADH 500 μM): 8.41 µM/min
- Rate of formation of Lactone (n = 2) (hNQO1 [3]; initial rates, MTL8-252 0.1 mM, NADH 0.5 mM, hNQO1, pH 7, 37° C.): 9.84 µM/min and 7.61 µM/min
- Rate of formation of 4-MU @ 210 nm (n = 2) (hNQO1 [3]; initial rates, UV 210 nm, MTL8-252 0.1 mM, NADH 0.5 mM, hNQO1, pH 7, 37° C.): 11.48 µM/min and 6.0 µM/min
- Rate of formation of 4-MU by FL (n = 2) (hNQO1 [3]; initial rates, fluorescence detection, MTL8-252 0.1 mM, NADH 0.5 mM, hNQO1, pH 7, 37° C.): 13.51 µM/min and 6.90 µM/min
- 4-MU formation determined by fluorescence (hNQO1 [3]; [12]): 13.51 µM/min
- Rate loss of MTL8-252 (hNQO1 [3]; [12]): 8.41 µM/min
- initial rate of formation of 4-MU (hNQO1 [3]; [13]): 11.48 µM/min
- initial rate of formation of lactone (hNQO1 [3]; [13]): 9.84 µM/min
- substrate for hNQO1 (hNQO1 [3]; with NADH, pH 7, 37° C.): excellent substrate for hNQO1
- solubility in DMSO [4]: very soluble
- rate of reduction in MTL8-252 concentration (hNQO1 [5]; 0.2 μg/ml hNQO1, NADH): 5.9 µM/min
- rate of reduction in MTL8-252 concentration (hNQO1 [5]; concentration of the enzyme halved (0.10 μg/mL hNQO1)): 1.5 µM/min
- increase in activity of hNQO1 expressing cells over null expressing cells (initial rate) ([6]; FIG. 8, uplc FL-Plus): about 100 fold
- initial rate of release of 4 MU in hDT7 cells (FIG. 8) ([6]; MTL8-252 10 μM in PBS, 5×10^5 cells/mL, FL-Plus λex=360 nm λem=450 nm): 6.1 µM/min
- stability in PBS (FIG. 9) ([8]; PBS): very stable
- stability in media without FBS (FIG. 9) ([8]; media without FBS): very stable
- release of 4-methylumbelliferone (4-MU) in NMP ([9]; 0.1M in NMP, 2-hour period at 37° C.): No detectable release
- Stability in NMP ([9]; 0.1M in NMP, 2-hour period at 37° C., uv absorbance peak area): stable
- stability in 10 mM sodium phosphate buffer, time stable ([9]; DMSO stock diluted in 10 mM sodium phosphate buffer (FIG. 2)): at least 1 hr
- stability in phosphate buffer, time stable ([9]; phosphate buffer (10 mM), 37° C., monitored 75 mins (FIG. 2)): at least 1 hour
- increase in 4-MU formation rate, HDT7 compared with null expressing cells (F179) ([10]; FIG. 7, luminescence spectrophotometer): at least 5 fold
- rate of formation of 4 MU in the hDT7 cells (FIG. 7) ([10]; hDT7 2.5×10^5 cells/mL, luminescence spectrophotometer): 0.83 nmol/min
Structure (SMILES): CC1=C(C)C(=O)C(C(C)(C)CC(=O)Oc2ccc3c(C)cc(=O)oc3c2)=C(C)C1=O [MTL8-252, 4-Methyl-2-oxo-2H-chromen-7-yl-3-methyl-3-(2,4,5-trimethyl-3,6-dioxocyclohexa-1,4-dienyl)butanoate]
- rate of release of 4 MU from the control experiment (FIG. 8) ([2]; MTL8-252 10 μM in PBS alone): 0.002 µM/min
- rate of formation of 4 MU in the urine alone (FIG. 7) ([2]; compound in urine alone, no cells): 0.32 nmol/min
- Rate of decrease in MTL8-252 concentration (n = 4) (hNQO1 [3]; initial rates, MTL8-252 0.1 mM, NADH 0.5 mM, hNQO1, phosphate buffer 10 mM pH 7, 37° C.): 5.9 µM/min and 6.21 µM/min and 8.41 µM/min and 9.05 µM/min
- initial rate of release of 4 MU in F179 cells (FIG. 8) [7]: 0.068 µM/min
- stability in cell culture medium (FIG. 9) ([8]; PBS replaced with cell culture medium, possible source FBS): other components in the media can reduce MTL8-252
- rate of formation of 4 MU in the F179 cells (FIG. 7) [11]: 0.18 nmol/min
